Experiments:
Assay in all cases: relative viability (nuclei count vs DMSO), 5 days (fraction); higher = more cells survive
[1] = compound: CC1=CC=C(C=C1)C(=O)CN2C3=C(CCCC3)SC2=N [Pifithrin_alpha] + Cc1nc(Nc2ncc(C(=O)Nc3c(C)cccc3Cl)s2)cc(N2CCN(CCO)CC2)n1 [Dasatinib] (partner 0.075 µM)
Outline: (§1)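 Values are medians from duplicate plates. Each reflects relative viability, defined as the nuclei count of treated wells over that of vehicle wells. Lung cancer cell lines in 1536-well plates were pin-tool dosed one day after seeding with one drug alone or with a fixed anchor-drug dose plus five library-drug doses (not always all listed) in √10 steps, then fixed, stained and imaged at 4× after 5 days.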

Axitinib + Pictilisib = compound: CNC(=O)c1ccccc1Sc1ccc2c(/C=C/c3ccccn3)n[nH]c2c1 [Axitinib] + CS(=O)(=O)N1CCN(Cc2cc3nc(-c4cccc5[nH]ncc45)nc(N4CCOCC4)c3s2)CC1 [Pictilisib] (partner 1 µM)
Outline: as §1

Bemcentinib + Luminespib = compound: Nc1nc(Nc2ccc3c(c2)CC[C@@H](N2CCCC2)CC3)nn1-c1cc2c(nn1)-c1ccccc1CCC2 [Bemcentinib] + CCNC(=O)c1noc(-c2cc(C(C)C)c(O)cc2O)c1-c1ccc(CN2CCOCC2)cc1 [Luminespib] (partner 0.01 µM)
Outline: as §1

Bemcentinib + Lapatinib = compound: Nc1nc(Nc2ccc3c(c2)CC[C@@H](N2CCCC2)CC3)nn1-c1cc2c(nn1)-c1ccccc1CCC2 [Bemcentinib] + CS(=O)(=O)CCNCc1ccc(-c2ccc3ncnc(Nc4ccc(OCc5cccc(F)c5)c(Cl)c4)c3c2)o1 [Lapatinib] (partner 2 µM)
Outline: as §1

Cell Line | relative viability ([1]; first compound 1 µM) | relative viability ([1]; first compound 3.162 µM) | relative viability ([1]; first compound 10 µM) | relative viability ([1]; first compound 100 µM) | relative viability (Axitinib + Pictilisib; first compound 0.005 µM) | relative viability (Axitinib + Pictilisib; first compound 0.01581 µM) | relative viability (Axitinib + Pictilisib; first compound 0.05 µM) | relative viability (Axitinib + Pictilisib; first compound 0.1581 µM) | relative viability (Axitinib + Pictilisib; first compound 0.5 µM) | relative viability (Bemcentinib + Luminespib; first compound 0.04 µM) | relative viability (Bemcentinib + Luminespib; first compound 0.1265 µM) | relative viability (Bemcentinib + Luminespib; first compound 0.4 µM) | relative viability (Bemcentinib + Luminespib; first compound 1.265 µM) | relative viability (Bemcentinib + Luminespib; first compound 4 µM) | relative viability (Bemcentinib + Lapatinib; first compound 0.04 µM) | relative viability (Bemcentinib + Lapatinib; first compound 0.1265 µM) | relative viability (Bemcentinib + Lapatinib; first compound 0.4 µM) | relative viability (Bemcentinib + Lapatinib; first compound 1.265 µM) | relative viability (Bemcentinib + Lapatinib; first compound 4 µM) | relative viability ([1]; first compound 31.62 µM)
NCI-H23 | 0.887 | 0.675 | 0.741 | 0.456 | 0.535 | 0.574 | 0.505 | 0.477 | 0.508 | 0.197 | 0.233 | 0.192 | 0.224 | 0.214 | 0.966 | 1.28 | 1.32 | 1.19 | 1.1 | 
PC-14 | 0.207 | 0.166 | 0.134 | 0.0425 | 0.919 | 0.699 | 0.676 | 0.731 | 0.834 | 0.132 | 0.137 | 0.186 | 0.159 | 0.132 | 0.336 | 0.372 | 0.339 | 0.3 | 0.284 | 0.0654
H3255 | 0.29 | 0.344 | 0.308 | 0.274 | 0.485 | 0.288 | 0.432 | 0.492 | 0.435 | 0.745 | 1.07 | 0.793 | 0.777 | 0.747 | 0.222 | 0.352 | 0.229 | 0.237 | 0.191 | 0.32
NCI-H1563 | 0.406 | 0.478 | 0.369 | 0.44 | 0.645 | 0.599 | 0.647 | 0.681 | 0.659 | 0.507 | 0.538 | 0.475 | 0.55 | 0.535 | 0.907 | 0.887 | 1.04 | 0.976 | 0.958 | 0.442
NCI-H3122 | 0.82 | 0.901 | 0.732 | 0.758 | 0.579 | 0.592 | 0.627 | 0.594 | 0.598 |  | 0.0968 | 0.102 | 0.0892 | 0.0707 | 0.818 | 1.03 | 1.03 | 1.02 | 1.03 | 
NCI-H2009 | 0.316 | 0.293 | 0.301 | 0.244 | 0.875 | 0.877 | 1 | 0.868 | 1.04 | 1.07 | 1.04 | 1.13 | 0.997 | 1.03 | 0.93 | 1.09 | 0.956 | 0.954 | 0.957 | 0.186
HCC-827 | 0.336 | 0.333 | 0.351 | 0.363 | 0.911 | 1.04 | 0.947 | 1.08 | 0.889 | 0.689 | 0.6 | 0.624 | 0.742 | 0.589 | 0.179 | 0.206 | 0.216 | 0.226 | 0.194 | 0.429
LXF-289 | 0.204 | 0.201 | 0.172 | 0.145 | 0.823 | 0.732 | 0.833 | 0.765 | 0.742 | 0.74 | 0.78 | 0.703 | 0.653 | 0.665 | 0.887 | 0.908 | 0.988 | 0.972 | 0.924 | 0.167
NCI-H596 | 0.54 | 0.588 | 0.583 | 0.503 | 0.352 | 0.359 | 0.417 | 0.379 | 0.364 | 0.893 | 1.12 | 1.23 | 1.27 | 1.09 | 1.07 | 1.13 | 1.09 | 1.09 | 1.09 | 0.494
NCI-H727 | 0.357 | 0.421 | 0.394 | 0.346 | 0.486 | 0.426 | 0.485 | 0.397 | 0.492 | 0.352 | 0.383 | 0.268 | 0.29 | 0.303 | 0.713 | 0.875 | 0.877 | 0.864 | 1.01 | 
NCI-H1993 | 0.531 | 0.532 | 0.581 | 0.608 | 0.763 | 0.952 | 0.805 | 0.772 | 0.781 | 0.905 | 0.768 | 0.999 | 1.13 | 0.899 | 0.695 | 0.757 | 0.847 | 0.8 | 0.885 | 0.559
NCI-H1437 | 0.545 | 0.474 | 0.401 | 0.45 | 0.437 | 0.399 | 0.459 | 0.418 | 0.402 | 1.12 | 1.24 | 1.15 | 1.07 | 1.11 | 0.798 | 0.764 | 0.854 | 0.771 | 0.882 | 0.349
NCI-H1792 |  | 1.17 | 0.641 | 0.639 | 0.311 | 0.251 | 0.213 | 0.275 | 0.271 | 0.578 | 0.482 | 0.64 | 0.489 | 0.486 | 0.899 | 0.855 | 1.11 | 0.969 | 0.896 | 0.533
NCI-H2023 | 0.432 | 0.324 | 0.348 | 0.275 | 0.232 | 0.195 | 0.267 | 0.222 | 0.272 | 0.839 | 0.695 | 1.02 | 0.864 | 0.657 | 0.739 | 0.866 | 0.868 | 0.808 | 0.874 | 
LK-2 | 0.249 | 0.246 | 0.28 | 0.307 | 0.556 | 0.434 | 0.512 | 0.506 | 0.486 | 0.218 | 0.167 | 0.151 | 0.172 | 0.182 | 0.869 | 0.908 | 1.07 | 0.838 | 0.891 | 
HOP-62 | 0.726 | 0.589 | 0.578 | 0.638 | 0.679 | 0.861 | 0.735 | 0.792 | 0.583 | 0.863 | 0.875 | 0.844 | 1.02 | 1 | 1.17 | 0.977 |  | 1.05 | 0.959 | 0.698
LC-2-ad |  | 0.492 | 0.347 | 0.437 | 0.505 | 0.516 | 0.458 | 0.54 | 0.469 | 0.997 | 1.11 | 1.03 | 0.935 | 0.905 | 0.921 | 1.09 | 0.979 | 0.943 | 0.995 | 
NCI-H838 | 0.259 | 0.28 | 0.245 | 0.229 | 0.461 | 0.37 | 0.551 | 0.594 | 0.607 | 0.256 | 0.278 | 0.357 | 0.282 | 0.262 | 1.06 | 1.16 | 0.914 | 0.967 | 1.26 | 0.234
NCI-H1944 | 0.217 | 0.214 | 0.217 | 0.196 | 0.356 | 0.336 | 0.357 | 0.351 | 0.357 | 0.735 | 0.836 | 0.791 | 0.705 | 0.758 | 0.794 | 0.909 | 0.817 | 0.883 | 0.887 | 0.173
CAL-12T | 0.327 | 0.249 | 0.258 | 0.196 | 0.385 | 0.393 | 0.513 | 0.492 | 0.396 | 0.273 | 0.462 | 0.388 | 0.363 | 0.453 | 0.556 | 0.598 | 0.599 | 0.597 | 0.652 | 
EPLC-272H | 0.236 | 0.344 | 0.324 | 0.379 | 0.317 | 0.289 | 0.391 | 0.272 | 0.313 | 0.25 | 0.658 | 0.279 | 0.353 | 0.318 |  | 0.958 | 1.01 | 0.962 | 1.02 | 0.279
NCI-H2170 | 0.68 | 0.467 | 0.512 | 0.404 | 0.316 | 0.268 | 0.327 | 0.305 | 0.259 | 0.568 | 0.923 | 0.649 | 0.809 | 0.869 | 0.274 | 0.267 | 0.295 | 0.251 | 0.273 | 0.39
NCI-H1915 | 0.284 | 0.295 |  | 0.276 | 0.966 | 0.994 | 0.999 | 0.888 | 0.88 | 0.861 | 0.974 | 0.9 | 0.899 | 0.89 | 0.958 | 1.07 | 0.979 | 1.09 | 1.05 | 
NCI-H2087 | 0.982 | 0.869 | 0.83 | 0.862 | 0.982 | 0.848 | 0.992 | 0.856 | 0.769 | 0.142 | 0.15 | 0.187 | 0.219 | 0.185 | 0.992 | 0.951 | 1.08 | 1.01 | 1.01 | 
LCLC-97TM1 | 1.08 | 0.846 | 0.984 | 0.954 | 0.145 | 0.229 | 0.206 | 0.247 | 0.172 | 0.684 | 0.793 | 0.726 | 0.866 | 0.986 | 0.777 | 1.11 |  | 1.12 | 0.941 | 0.428
NCI-H1734 | 0.421 | 0.494 | 0.474 | 0.424 | 0.462 | 0.432 | 0.493 | 0.439 | 0.436 | 0.178 | 0.192 | 0.219 | 0.218 | 0.188 | 1.11 | 1.08 | 1.12 | 1.03 | 1.04 | 0.461
EKVX |  | 0.461 | 0.352 | 0.384 | 0.441 | 0.429 | 0.481 | 0.48 | 0.399 | 0.825 | 0.878 | 0.923 | 0.838 | 0.863 | 0.186 | 0.218 | 0.199 | 0.213 | 0.196 | 0.404
